According to PubChem BioAssay (NCI):
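GI50 is the concentration that inhibits growth by half. TGI: total growth inhibition.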

Legend:
Experiment in all cases: NCI anticancer screen, dose series, 384-well format
MDA-MB-231 breast = test system: MDA-MB-231 breast
NCI/ADR-RES ovarian = test system: NCI/ADR-RES ovarian
HT29 colon = test system: HT29 colon
NCI-H322M lung = test system: NCI-H322M lung
EKVX NSCLC = test system: EKVX NSCLC
NCI-H522 lung = test system: NCI-H522 lung
OVCAR-5 ovarian = test system: OVCAR-5 ovarian
U251 glioblastoma = test system: U251 glioblastoma
SNB-19 CNS = test system: SNB-19 CNS
SR leukemia = test system: SR leukemia
HOP-92 NSCLC = test system: HOP-92 NSCLC
PC-3 prostate = test system: PC-3 prostate
SNB-75 CNS = test system: SNB-75 CNS
MCF7 breast = test system: MCF7 breast
SK-OV-3 ovarian = test system: SK-OV-3 ovarian
HOP-62 NSCLC = test system: HOP-62 NSCLC
IGROV1 ovarian = test system: IGROV1 ovarian
MALME-3M melanoma = test system: MALME-3M melanoma
LOX IMVI melanoma = test system: LOX IMVI melanoma
SN12C renal = test system: SN12C renal
COLO 205 colon = test system: COLO 205 colon
A549 NSCLC = test system: A549 NSCLC
SF-268 CNS = test system: SF-268 CNS
T-47D breast = test system: T-47D breast
RXF 393 renal = test system: RXF 393 renal
OVCAR-3 ovarian = test system: OVCAR-3 ovarian
M14 melanoma = test system: M14 melanoma
MDA-MB-435 melanoma = test system: MDA-MB-435 melanoma
HCT-15 colon = test system: HCT-15 colon
ACHN renal = test system: ACHN renal
OVCAR-8 ovarian = test system: OVCAR-8 ovarian
HCT-116 colon = test system: HCT-116 colon
RPMI-8226 leukemia = test system: RPMI-8226 leukemia
MOLT-4 leukemia = test system: MOLT-4 leukemia
HS 578T breast = test system: HS 578T breast
OVCAR-4 ovarian = test system: OVCAR-4 ovarian
MDA-MB-468 breast = test system: MDA-MB-468 breast
SF-295 CNS = test system: SF-295 CNS
SK-MEL-5 melanoma = test system: SK-MEL-5 melanoma
BT-549 breast = test system: BT-549 breast
DU-145 prostate = test system: DU-145 prostate
NCI-H460 NSCLC = test system: NCI-H460 NSCLC
NCI-H226 lung = test system: NCI-H226 lung
CAKI-1 renal = test system: CAKI-1 renal
SK-MEL-28 melanoma = test system: SK-MEL-28 melanoma
KM12 colon = test system: KM12 colon
SF-539 CNS = test system: SF-539 CNS
TK-10 renal = test system: TK-10 renal
A498 renal = test system: A498 renal
NCI-H23 lung = test system: NCI-H23 lung
HL-60(TB) leukemia = test system: HL-60(TB) leukemia
HCC-2998 colon = test system: HCC-2998 colon

## O=C(/C=C/c1cccnc1)NCCCCC1CCN(C(=O)c2ccccc2)CC1
MDA-MB-231 breast
  GI50: < 10 nM
  TGI: < 10 nM
NCI/ADR-RES ovarian
  GI50: < 10 nM
  TGI: < 10 nM
HT29 colon
  GI50: < 10 nM
  TGI: < 10 nM
NCI-H322M lung
  GI50: < 10 nM
  TGI: < 10 nM
EKVX NSCLC
  GI50: < 10 nM
  TGI: < 10 nM
NCI-H522 lung
  GI50: < 10 nM
  TGI: < 10 nM
OVCAR-5 ovarian
  GI50: < 10 nM
  TGI: < 10 nM
U251 glioblastoma
  GI50: < 10 nM
  TGI: < 10 nM
SNB-19 CNS
  GI50: < 10 nM
  TGI: < 10 nM
SR leukemia
  GI50: < 10 nM
  TGI: < 10 nM
HOP-92 NSCLC
  GI50: < 10 nM
  TGI: 24 nM
PC-3 prostate
  GI50: < 10 nM
  TGI: < 10 nM
SNB-75 CNS
  GI50: < 10 nM
  TGI: < 10 nM
MCF7 breast
  GI50: < 10 nM
  TGI: < 10 nM
SK-OV-3 ovarian
  GI50: < 10 nM
  TGI: < 10 nM
HOP-62 NSCLC
  GI50: < 10 nM
  TGI: < 10 nM
IGROV1 ovarian
  GI50: < 10 nM
  TGI: < 10 nM
MALME-3M melanoma
  GI50: < 10 nM
  TGI: 13.9 nM
LOX IMVI melanoma
  GI50: < 10 nM
  TGI: < 10 nM
SN12C renal
  GI50: < 10 nM
  TGI: < 10 nM
COLO 205 colon
  GI50: < 10 nM
  TGI: < 10 nM
A549 NSCLC
  GI50: < 10 nM
  TGI: 10.8 nM
SF-268 CNS
  GI50: < 10 nM
  TGI: < 10 nM
T-47D breast
  GI50: < 10 nM
  TGI: < 10 nM
RXF 393 renal
  GI50: < 10 nM
  TGI: < 10 nM
OVCAR-3 ovarian
  GI50: < 10 nM
  TGI: < 10 nM
M14 melanoma
  GI50: < 10 nM
  TGI: < 10 nM
MDA-MB-435 melanoma
  GI50: < 10 nM
  TGI: < 10 nM
HCT-15 colon
  GI50: < 10 nM
  TGI: < 10 nM
ACHN renal
  GI50: < 10 nM
  TGI: < 10 nM
OVCAR-8 ovarian
  GI50: < 10 nM
  TGI: < 10 nM
HCT-116 colon
  GI50: < 10 nM
  TGI: < 10 nM
RPMI-8226 leukemia
  GI50: < 10 nM
  TGI: < 10 nM
MOLT-4 leukemia
  GI50: < 10 nM
  TGI: < 10 nM
HS 578T breast
  GI50: < 10 nM
  TGI: < 10 nM
OVCAR-4 ovarian
  GI50: < 10 nM
  TGI: < 10 nM
MDA-MB-468 breast
  GI50: < 10 nM
  TGI: < 10 nM
SF-295 CNS
  GI50: < 10 nM
  TGI: < 10 nM
SK-MEL-5 melanoma
  GI50: < 10 nM
  TGI: < 10 nM
BT-549 breast
  GI50: < 10 nM
  TGI: < 10 nM
DU-145 prostate
  GI50: < 10 nM
  TGI: < 10 nM
NCI-H460 NSCLC
  GI50: < 10 nM
  TGI: 11.7 nM
NCI-H226 lung
  GI50: 60.2 nM
  TGI: > 100000 nM
CAKI-1 renal
  GI50: < 10 nM
  TGI: < 10 nM
SK-MEL-28 melanoma
  GI50: < 10 nM
  TGI: < 10 nM
KM12 colon
  GI50: < 10 nM
  TGI: < 10 nM
SF-539 CNS
  GI50: < 10 nM
  TGI: < 10 nM
TK-10 renal
  GI50: < 10 nM
  TGI: < 10 nM
A498 renal
  GI50: 16.9 nM
  TGI: 67.9 nM
NCI-H23 lung
  GI50: < 10 nM
  TGI: < 10 nM
HL-60(TB) leukemia
  GI50: < 10 nM
  TGI: < 10 nM
HCC-2998 colon
  GI50: < 10 nM
  TGI: < 10 nM
